Results from PubChem BioAssay AID256 (DTP/NCI, 2004).
Toxic doses and inconclusive results are not listed.

Test system: CD2F1 mice, L1210 leukemia ip, survival T/C
Experiment: NCI In Vivo Anticancer Drug Screen. Data for tumor model L1210 Leukemia (intraperitoneal) in CD2F1 (CDF1) mice
Settings: higher = longer survival
Method in brief: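 Compound-dosed mice with transplantable tumor versus matched vehicle controls; endpoint ratio T/C reported.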

[1] = endpoint: mean survival time, dose: 100.0 mg/kg/injection, schedule: Q01DX001 (ip), vehicle: saline with Tween-80
[2] = endpoint: mean survival time, dose: 200.0 mg/kg/injection, schedule: Q01DX001 (ip), vehicle: saline with Tween-80
[3] = endpoint: mean survival time, dose: 100.0 mg/kg/injection, schedule: Q04DX003 (ip), vehicle: saline with Tween-80
[4] = endpoint: mean survival time, dose: 200.0 mg/kg/injection, schedule: Q04DX003 (ip), vehicle: saline with Tween-80
[5] = endpoint: mean survival time, dose: 400.0 mg/kg/injection, schedule: Q04DX003 (ip), vehicle: saline with Tween-80
[6] = endpoint: mean survival time, dose: 25.0 mg/kg/injection, schedule: Q01DX005 (ip), vehicle: water
[7] = endpoint: mean survival time, dose: 50.0 mg/kg/injection, schedule: Q01DX005 (ip), vehicle: water
[8] = endpoint: mean survival time, dose: 50.0 mg/kg/injection, schedule: Q01DX009 (ip), vehicle: saline with Tween-80
[9] = endpoint: mean survival time, dose: 100.0 mg/kg/injection, schedule: Q01DX009 (ip), vehicle: saline with Tween-80
[10] = endpoint: mean survival time, dose: 200.0 mg/kg/injection, schedule: Q01DX009 (ip), vehicle: saline with Tween-80
[11] = endpoint: mean survival time, dose: 400.0 mg/kg/injection, schedule: Q01DX001 (ip), vehicle: saline with Tween-80

CC(=O)OCC1OC(n2cnc3c(NC(=O)c4ccccc4)ncnc32)C(OC(C)=O)C1OC(C)=O (stereo not given)
T/C (endpoint: mean survival time, dose: 12.5 mg/kg/injection, schedule: Q01DX005 (ip), vehicle: distilled water + Tween-80): 93 % of control
T/C (endpoint: mean survival time, dose: 25.0 mg/kg/injection, schedule: Q01DX005 (ip), vehicle: distilled water + Tween-80): 100 % of control
T/C (endpoint: mean survival time, dose: 50.0 mg/kg/injection, schedule: Q01DX005 (ip), vehicle: distilled water + Tween-80): 88 % of control
T/C (endpoint: mean survival time, dose: 100.0 mg/kg/injection, schedule: Q01DX005 (ip), vehicle: distilled water + Tween-80): 94 % of control

Cc1ccc(S(=O)(=O)NC(=S)c2ccccc2)cc1
T/C [1]: 97 % of control
T/C [2]: 105 % of control

CSc1ccc(N=C=C(c2ccccc2)c2ccccc2)cc1
T/C (endpoint: mean survival time, dose: 6.25 mg/kg/injection, schedule: Q01DX009 (ip), vehicle: saline with Tween-80): 96 % of control
T/C (endpoint: mean survival time, dose: 12.5 mg/kg/injection, schedule: Q01DX009 (ip), vehicle: saline with Tween-80): 94 % of control
T/C (endpoint: mean survival time, dose: 25.0 mg/kg/injection, schedule: Q01DX009 (ip), vehicle: saline with Tween-80): 94 % of control
T/C [3]: 93 % of control
T/C [4]: 95 % of control
T/C [5]: 97 % of control

CCCc1cc(C(C)=O)c[n+](C2OC(COC(C)=O)C(OC(C)=O)C(OC(C)=O)C2OC(C)=O)c1 (stereo not given)
T/C (endpoint: mean survival time, dose: 3.13 mg/kg/injection, schedule: Q01DX005 (ip), vehicle: water): 107 % of control
T/C (endpoint: mean survival time, dose: 6.25 mg/kg/injection, schedule: Q01DX005 (ip), vehicle: water): 100 % of control
T/C (endpoint: mean survival time, dose: 12.5 mg/kg/injection, schedule: Q01DX005 (ip), vehicle: water): 104 % of control
T/C [6]: 109 % of control
T/C [7]: 95 % of control

OCCCc1nc2ccccc2[nH]1
T/C [3]: 102 % of control
T/C [4]: 107 % of control
T/C [5]: 98 % of control

NCCCC(N)C(=O)O (stereo not given)
T/C (endpoint: median survival time, dose: 3.13 mg/kg/injection, schedule: Q04DX002 (ip), vehicle: saline): 111 % of control
T/C (endpoint: median survival time, dose: 6.25 mg/kg/injection, schedule: Q04DX002 (ip), vehicle: saline): 117 % of control
T/C (endpoint: median survival time, dose: 12.5 mg/kg/injection, schedule: Q04DX002 (ip), vehicle: saline): 108 % of control
T/C (endpoint: median survival time, dose: 50.0 mg/kg/injection, schedule: Q04DX002 (ip), vehicle: saline): 105 % of control

C=CCN(CC=C)C(=O)Nc1ccc(C)c(C)c1
T/C [8]: 96 % of control
T/C [9]: 92 % of control
T/C [10]: 96 % of control

CC/C=C/CCOC(=N)C(Cl)(Cl)Cl
T/C [8]: 92 % of control
T/C [9]: 92 % of control
T/C [10]: 101 % of control

CCCCCCCCCCCCCCP(=O)(O)O
T/C (endpoint: mean survival time, dose: 75.0 mg/kg/injection, schedule: Q01DX001 (ip), vehicle: other): 92 % of control
T/C (endpoint: mean survival time, dose: 150.0 mg/kg/injection, schedule: Q01DX001 (ip), vehicle: other): 98 % of control
T/C (endpoint: mean survival time, dose: 300.0 mg/kg/injection, schedule: Q01DX001 (ip), vehicle: other): 96 % of control

COC1OC(CCl)C(Cl)C2OS(=O)(=O)OC12 (stereo not given)
T/C (endpoint: mean survival time, dose: 100.0 mg/kg/injection, schedule: Q01DX001 (ip), vehicle: saline): 97 % of control
T/C (endpoint: mean survival time, dose: 200.0 mg/kg/injection, schedule: Q01DX001 (ip), vehicle: saline): 100 % of control
T/C (endpoint: mean survival time, dose: 400.0 mg/kg/injection, schedule: Q01DX001 (ip), vehicle: saline): 96 % of control

Cc1ccc(N=Nc2sc(N)nc2-c2cccc([N+](=O)[O-])c2)cc1
T/C [1]: 89 % of control
T/C [2]: 96 % of control

CC(=O)Nc1ccc(C(=O)CCl)cc1
T/C [3]: 90 % of control

O=C=NC(=O)c1ccccc1
T/C (endpoint: mean survival time, dose: 100.0 mg/kg/injection, schedule: Q04DX002 (ip), vehicle: saline with Tween-80): 96 % of control
T/C (endpoint: mean survival time, dose: 200.0 mg/kg/injection, schedule: Q04DX002 (ip), vehicle: saline with Tween-80): 100 % of control
T/C (endpoint: mean survival time, dose: 400.0 mg/kg/injection, schedule: Q04DX002 (ip), vehicle: saline with Tween-80): 118 % of control

Nc1cc(Br)cc(Br)c1
T/C [3]: 94 % of control
T/C [4]: 105 % of control
T/C [5]: 94 % of control

Nc1ccn(C2OC(COP(=O)(O)Oc3ccccc3)C(O)C2O)c(=O)n1 (stereo not given)
T/C (endpoint: mean survival time, dose: 12.5 mg/kg/injection, schedule: Q01DX009 (ip), vehicle: suspension in saline): 162 % of control
T/C (endpoint: mean survival time, dose: 25.0 mg/kg/injection, schedule: Q01DX009 (ip), vehicle: suspension in saline): 194 % of control
T/C (endpoint: mean survival time, dose: 50.0 mg/kg/injection, schedule: Q01DX009 (ip), vehicle: suspension in saline): 202 % of control
T/C (endpoint: mean survival time, dose: 100.0 mg/kg/injection, schedule: Q01DX009 (ip), vehicle: suspension in saline): 223 % of control

CC1OC(O)CC(NC(=O)C(F)(F)F)C1O (stereo not given)
T/C [6]: 98 % of control
T/C [7]: 95 % of control
T/C (endpoint: mean survival time, dose: 100.0 mg/kg/injection, schedule: Q01DX005 (ip), vehicle: water): 98 % of control
T/C (endpoint: mean survival time, dose: 200.0 mg/kg/injection, schedule: Q01DX005 (ip), vehicle: water): 107 % of control
T/C (endpoint: mean survival time, dose: 400.0 mg/kg/injection, schedule: Q01DX005 (ip), vehicle: water): 98 % of control

[Cl][Pd][Cl]
T/C (endpoint: mean survival time, dose: 12.5 mg/kg/injection, schedule: Q01DX009 (ip), vehicle: saline sonified): 95 % of control
T/C (endpoint: mean survival time, dose: 12.5 mg/kg/injection, schedule: Q04DX003 (ip), vehicle: saline with Tween-80): 107 % of control
T/C (endpoint: mean survival time, dose: 25.0 mg/kg/injection, schedule: Q04DX003 (ip), vehicle: saline with Tween-80): 103 % of control
T/C (endpoint: mean survival time, dose: 50.0 mg/kg/injection, schedule: Q04DX003 (ip), vehicle: saline with Tween-80): 91 % of control

O=P1(CCBr)NCCCO1 (stereo not given)
T/C (endpoint: mean survival time, dose: 62.5 mg/kg/injection, schedule: Q01DX001 (ip), vehicle: water): 100 % of control
T/C (endpoint: mean survival time, dose: 125.0 mg/kg/injection, schedule: Q01DX001 (ip), vehicle: water): 97 % of control
T/C (endpoint: mean survival time, dose: 250.0 mg/kg/injection, schedule: Q01DX001 (ip), vehicle: water): 94 % of control
T/C (endpoint: mean survival time, dose: 500.0 mg/kg/injection, schedule: Q01DX001 (ip), vehicle: water): 97 % of control
T/C (endpoint: mean survival time, dose: 750.0 mg/kg/injection, schedule: Q01DX001 (ip), vehicle: water): 102 % of control

CC1=C/C(=N/Nc2ccc([N+](=O)[O-])cc2[N+](=O)[O-])CC(C)(C)C1
T/C [1]: 92 % of control
T/C [2]: 90 % of control
T/C [11]: 95 % of control

C=C1CC(Cc2ccccc2)OC1=O (stereo not given)
T/C (endpoint: mean survival time, dose: 25.0 mg/kg/injection, schedule: Q01DX001 (ip), vehicle: saline with Tween-80): 96 % of control
T/C (endpoint: mean survival time, dose: 50.0 mg/kg/injection, schedule: Q01DX001 (ip), vehicle: saline with Tween-80): 101 % of control
T/C [1]: 101 % of control

C[S+](C)C
T/C (endpoint: mean survival time, dose: 25.0 mg/kg/injection, schedule: Q01DX009 (ip), vehicle: saline): 101 % of control
T/C (endpoint: mean survival time, dose: 50.0 mg/kg/injection, schedule: Q01DX009 (ip), vehicle: saline): 100 % of control
T/C (endpoint: mean survival time, dose: 100.0 mg/kg/injection, schedule: Q01DX009 (ip), vehicle: saline): 104 % of control
T/C (endpoint: mean survival time, dose: 100.0 mg/kg/injection, schedule: Q04DX003 (ip), vehicle: saline): 101 % of control
T/C (endpoint: mean survival time, dose: 200.0 mg/kg/injection, schedule: Q01DX009 (ip), vehicle: saline): 98 % of control
T/C (endpoint: mean survival time, dose: 200.0 mg/kg/injection, schedule: Q04DX003 (ip), vehicle: saline): 101 % of control
T/C (endpoint: mean survival time, dose: 400.0 mg/kg/injection, schedule: Q01DX009 (ip), vehicle: saline): 102 % of control
T/C (endpoint: mean survival time, dose: 400.0 mg/kg/injection, schedule: Q04DX003 (ip), vehicle: saline): 104 % of control

C1N2CN3CN1CN(C2)C3.[Cl][Pt]([Cl])[Cl]
T/C (endpoint: mean survival time, dose: 3.13 mg/kg/injection, schedule: Q04DX003 (ip), vehicle: distilled water + Tween-80): 103 % of control
T/C (endpoint: mean survival time, dose: 6.25 mg/kg/injection, schedule: Q04DX003 (ip), vehicle: distilled water + Tween-80): 108 % of control
T/C (endpoint: mean survival time, dose: 12.5 mg/kg/injection, schedule: Q04DX003 (ip), vehicle: distilled water + Tween-80): 109 % of control
T/C (endpoint: mean survival time, dose: 25.0 mg/kg/injection, schedule: Q04DX003 (ip), vehicle: distilled water + Tween-80): 108 % of control
T/C (endpoint: mean survival time, dose: 50.0 mg/kg/injection, schedule: Q04DX003 (ip), vehicle: distilled water + Tween-80): 115 % of control

CCC[CH2][Sn]([Cl])([CH2]Cl)[CH2]CCC
T/C (endpoint: mean survival time, dose: 2.5 mg/kg/injection, schedule: Q04DX003 (ip), vehicle: saline): 98 % of control
T/C (endpoint: mean survival time, dose: 5.0 mg/kg/injection, schedule: Q04DX003 (ip), vehicle: saline): 97 % of control

Cc1ccc(NC(=O)Nc2ccc(S(N)(=O)=O)cc2)cc1C
T/C [8]: 96 % of control
T/C [9]: 87 % of control
T/C [10]: 87 % of control

Nc1ncnc2oc(-c3ccccc3)c(-c3ccccc3)c12
T/C [1]: 87 % of control
T/C [2]: 89 % of control
T/C [11]: 87 % of control
